Results taken from PubChem BioAssay (NCI).
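96-well plates; 48 h exposure; 5 concentrations. Endpoints by linear interpolation between flanking doses. Not reached: highest tested concentration assigned. GI50 marks 50% less growth. At the TGI there is no net growth.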

Tests used:
Experiment in all cases: inhibition of tumour cell growth, NCI panel, 48 h
786-0 renal = test system: 786-0 renal
A498 renal = test system: A498 renal
A549 NSCLC = test system: A549 NSCLC
ACHN renal = test system: ACHN renal
BT-549 breast = test system: BT-549 breast
CAKI-1 renal = test system: CAKI-1 renal
CCRF-CEM leukemia = test system: CCRF-CEM leukemia
COLO 205 colon = test system: COLO 205 colon
DU-145 prostate = test system: DU-145 prostate
EKVX NSCLC = test system: EKVX NSCLC
HCC-2998 colon = test system: HCC-2998 colon
HCT-116 colon = test system: HCT-116 colon
HL-60(TB) leukemia = test system: HL-60(TB) leukemia
HOP-62 NSCLC = test system: HOP-62 NSCLC
HOP-92 NSCLC = test system: HOP-92 NSCLC
HS 578T breast = test system: HS 578T breast
HT29 colon = test system: HT29 colon
IGROV1 ovarian = test system: IGROV1 ovarian
K-562 leukemia = test system: K-562 leukemia
KM12 colon = test system: KM12 colon
M14 melanoma = test system: M14 melanoma
MALME-3M melanoma = test system: MALME-3M melanoma
MCF7 breast = test system: MCF7 breast
MDA-MB-231 breast = test system: MDA-MB-231 breast
MDA-MB-435 = test system: MDA-MB-435
MOLT-4 leukemia = test system: MOLT-4 leukemia
NCI-H23 lung = test system: NCI-H23 lung
NCI-H460 lung = test system: NCI-H460 lung
NCI-H522 lung = test system: NCI-H522 lung
NCI/ADR-RES ovarian = test system: NCI/ADR-RES ovarian
OVCAR-3 ovarian = test system: OVCAR-3 ovarian
OVCAR-4 ovarian = test system: OVCAR-4 ovarian
OVCAR-5 ovarian = test system: OVCAR-5 ovarian
OVCAR-8 ovarian = test system: OVCAR-8 ovarian
PC-3 prostate = test system: PC-3 prostate
RPMI-8226 leukemia = test system: RPMI-8226 leukemia
RXF 393 renal = test system: RXF 393 renal
SF-268 CNS = test system: SF-268 CNS
SF-295 CNS = test system: SF-295 CNS
SF-539 CNS = test system: SF-539 CNS
SK-MEL-2 melanoma = test system: SK-MEL-2 melanoma
SK-MEL-28 melanoma = test system: SK-MEL-28 melanoma
SK-MEL-5 melanoma = test system: SK-MEL-5 melanoma
SK-OV-3 ovarian = test system: SK-OV-3 ovarian
SN12C renal = test system: SN12C renal
SNB-19 CNS = test system: SNB-19 CNS
SNB-75 CNS = test system: SNB-75 CNS
SR leukemia = test system: SR leukemia
SW-620 colon = test system: SW-620 colon
T-47D breast = test system: T-47D breast
TK-10 renal = test system: TK-10 renal
U251 CNS = test system: U251 CNS
UACC-257 melanoma = test system: UACC-257 melanoma
UACC-62 melanoma = test system: UACC-62 melanoma
UO-31 renal = test system: UO-31 renal
HCT-15 colon = test system: HCT-15 colon
LOX IMVI melanoma = test system: LOX IMVI melanoma
NCI-H226 lung = test system: NCI-H226 lung

COc1ccc(-c2c3c(nc4n[nH]c(-c5ccc(Cl)cc5)c24)-c2ccccc2C(=O)C3=O)cc1
GI50 (786-0 renal): 2.01 µM
TGI (786-0 renal): 4.59 µM
GI50 (A498 renal): 3.72 µM
TGI (A498 renal): 17.6 µM
GI50 (A549 NSCLC): 1.83 µM
TGI (A549 NSCLC): 3.54 µM
GI50 (ACHN renal): 1.46 µM
TGI (ACHN renal): 3.3 µM
GI50 (BT-549 breast): 1.41 µM
TGI (BT-549 breast): 2.89 µM
GI50 (CAKI-1 renal): 1.62 µM
TGI (CAKI-1 renal): 4.38 µM
GI50 (CCRF-CEM leukemia): 2.55 µM
TGI (CCRF-CEM leukemia): > 100 µM
GI50 (COLO 205 colon): 1.57 µM
TGI (COLO 205 colon): 2.99 µM
GI50 (DU-145 prostate): 1.59 µM
TGI (DU-145 prostate): 2.96 µM
GI50 (EKVX NSCLC): 1.64 µM
TGI (EKVX NSCLC): 4.43 µM
GI50 (HCC-2998 colon): 1.73 µM
TGI (HCC-2998 colon): 3.19 µM
GI50 (HCT-116 colon): 1.01 µM
TGI (HCT-116 colon): 2.48 µM
GI50 (HL-60(TB) leukemia): 3.08 µM
TGI (HL-60(TB) leukemia): 28.1 µM
GI50 (HOP-62 NSCLC): 1.56 µM
TGI (HOP-62 NSCLC): 2.96 µM
GI50 (HOP-92 NSCLC): 1.18 µM
TGI (HOP-92 NSCLC): 3.17 µM
GI50 (HS 578T breast): 1.85 µM
TGI (HS 578T breast): 8.14 µM
GI50 (HT29 colon): 1.87 µM
TGI (HT29 colon): 3.4 µM
GI50 (IGROV1 ovarian): 1.54 µM
TGI (IGROV1 ovarian): 3.22 µM
GI50 (K-562 leukemia): 1.58 µM
TGI (K-562 leukemia): > 100 µM
GI50 (KM12 colon): 1.62 µM
TGI (KM12 colon): 3.16 µM
GI50 (M14 melanoma): 1.71 µM
TGI (M14 melanoma): 3.48 µM
GI50 (MALME-3M melanoma): 0.75 µM
TGI (MALME-3M melanoma): 2.81 µM
GI50 (MCF7 breast): 1.46 µM
TGI (MCF7 breast): 5.7 µM
GI50 (MDA-MB-231 breast): 1.6 µM
TGI (MDA-MB-231 breast): 5.3 µM
GI50 (MDA-MB-435): 1.54 µM
TGI (MDA-MB-435): 3.43 µM
GI50 (MOLT-4 leukemia): 2.44 µM
TGI (MOLT-4 leukemia): 14.9 µM
GI50 (NCI-H23 lung): 1.64 µM
TGI (NCI-H23 lung): 4.74 µM
GI50 (NCI-H460 lung): 1.52 µM
TGI (NCI-H460 lung): 3.24 µM
GI50 (NCI-H522 lung): 1.43 µM
TGI (NCI-H522 lung): 2.99 µM
GI50 (NCI/ADR-RES ovarian): 2.64 µM
TGI (NCI/ADR-RES ovarian): > 100 µM
GI50 (OVCAR-3 ovarian): 1.28 µM
TGI (OVCAR-3 ovarian): 4.33 µM
GI50 (OVCAR-4 ovarian): 1.7 µM
TGI (OVCAR-4 ovarian): 15.9 µM
GI50 (OVCAR-5 ovarian): 2.15 µM
TGI (OVCAR-5 ovarian): 4.79 µM
GI50 (OVCAR-8 ovarian): 1.59 µM
TGI (OVCAR-8 ovarian): 3.44 µM
GI50 (PC-3 prostate): 1.22 µM
TGI (PC-3 prostate): 3.71 µM
GI50 (RPMI-8226 leukemia): 1.72 µM
TGI (RPMI-8226 leukemia): 7.15 µM
GI50 (RXF 393 renal): 1.5 µM
TGI (RXF 393 renal): 3.1 µM
GI50 (SF-268 CNS): 1.4 µM
TGI (SF-268 CNS): 2.99 µM
GI50 (SF-295 CNS): 1.9 µM
TGI (SF-295 CNS): 4.32 µM
GI50 (SF-539 CNS): 1.7 µM
TGI (SF-539 CNS): 3.47 µM
GI50 (SK-MEL-2 melanoma): 1.56 µM
TGI (SK-MEL-2 melanoma): 3.3 µM
GI50 (SK-MEL-28 melanoma): 1.84 µM
TGI (SK-MEL-28 melanoma): 3.9 µM
GI50 (SK-MEL-5 melanoma): 1.51 µM
TGI (SK-MEL-5 melanoma): 2.84 µM
GI50 (SK-OV-3 ovarian): 1.68 µM
TGI (SK-OV-3 ovarian): 3.23 µM
GI50 (SN12C renal): 1.66 µM
TGI (SN12C renal): 3.82 µM
GI50 (SNB-19 CNS): 1.83 µM
TGI (SNB-19 CNS): 3.7 µM
GI50 (SNB-75 CNS): 1.19 µM
TGI (SNB-75 CNS): 2.76 µM
GI50 (SR leukemia): 2.57 µM
TGI (SR leukemia): > 100 µM
GI50 (SW-620 colon): 1.6 µM
TGI (SW-620 colon): 3.03 µM
GI50 (T-47D breast): 1.03 µM
TGI (T-47D breast): 9.47 µM
GI50 (TK-10 renal): 1.8 µM
TGI (TK-10 renal): 3.32 µM
GI50 (U251 CNS): 1.46 µM
TGI (U251 CNS): 2.81 µM
GI50 (UACC-257 melanoma): 1.57 µM
TGI (UACC-257 melanoma): 2.95 µM
GI50 (UACC-62 melanoma): 1.59 µM
TGI (UACC-62 melanoma): 3.85 µM
GI50 (UO-31 renal): 1.17 µM
TGI (UO-31 renal): 2.9 µM

O=C(/C(=C\I)c1ccccc1)c1ccccc1
TGI (786-0 renal): 14.6 µM
TGI (A498 renal): 30.3 µM
TGI (A549 NSCLC): 49.2 µM
TGI (ACHN renal): 25.7 µM
TGI (BT-549 breast): 30.3 µM
TGI (CAKI-1 renal): 3.07 µM
TGI (CCRF-CEM leukemia): 54 µM
TGI (COLO 205 colon): 11.9 µM
TGI (DU-145 prostate): 19.2 µM
TGI (EKVX NSCLC): 32.3 µM
TGI (HCC-2998 colon): 16.1 µM
TGI (HCT-116 colon): 26.2 µM
TGI (HCT-15 colon): 9.37 µM
TGI (HL-60(TB) leukemia): 2.57 µM
TGI (HOP-62 NSCLC): 13.7 µM
TGI (HOP-92 NSCLC): 28.2 µM
TGI (HS 578T breast): 19.1 µM
TGI (HT29 colon): 4.95 µM
TGI (IGROV1 ovarian): 26.3 µM
TGI (K-562 leukemia): 26.7 µM
TGI (KM12 colon): 8.09 µM
TGI (LOX IMVI melanoma): 29.9 µM
TGI (M14 melanoma): 30.5 µM
TGI (MALME-3M melanoma): 21.2 µM
TGI (MCF7 breast): 4.22 µM
TGI (MDA-MB-231 breast): 17.4 µM
TGI (MDA-MB-435): 26.5 µM
TGI (MOLT-4 leukemia): 86.5 µM
TGI (NCI-H226 lung): 53.5 µM
TGI (NCI-H23 lung): 25.9 µM
TGI (NCI-H460 lung): 27.3 µM
TGI (NCI-H522 lung): 22.5 µM
TGI (NCI/ADR-RES ovarian): 44.1 µM
TGI (OVCAR-3 ovarian): 5.71 µM
TGI (OVCAR-4 ovarian): 17.7 µM
TGI (OVCAR-5 ovarian): 33.1 µM
TGI (OVCAR-8 ovarian): 14.6 µM
TGI (PC-3 prostate): 7.38 µM
TGI (RPMI-8226 leukemia): > 21.2 µM
TGI (RXF 393 renal): 11.7 µM
TGI (SF-268 CNS): > 46.2 µM
TGI (SF-295 CNS): 32.9 µM
TGI (SF-539 CNS): 35.1 µM
TGI (SK-MEL-2 melanoma): 21.4 µM
TGI (SK-MEL-28 melanoma): 5.88 µM
TGI (SK-MEL-5 melanoma): 31.3 µM
TGI (SK-OV-3 ovarian): 32.3 µM
TGI (SN12C renal): 34.9 µM
TGI (SNB-19 CNS): 23.1 µM
TGI (SNB-75 CNS): > 39.5 µM
TGI (SR leukemia): 41 µM
TGI (SW-620 colon): 9.93 µM
TGI (T-47D breast): 6.02 µM
TGI (TK-10 renal): 29.8 µM
TGI (U251 CNS): 9.69 µM
TGI (UACC-257 melanoma): 15.8 µM
TGI (UACC-62 melanoma): 12 µM
TGI (UO-31 renal): 20.2 µM
